{"source": "patent US8815863B2", "about": "“Compounds and therapeutic use thereof for protein kinase inhibition” (priority 2009, dated 2014)", "key": {"[1]": {"tested_on": "Human colon cancer HT-99", "experiment": "Human colon cancer HT-99 transplanted nude mice", "format": "in vivo", "settings": "GCT 20 mg/kg ip, compound 1 15 mg/kg iv", "experimental": "Some of the above compounds are tested in vitro or in vivo for their anti-cancer or anti-tumor activities, as well as cellular toxicity tests using SRB and MTT methods. The in vitro anti-cancer effects on human cancer HT-29 and mouse lung cancer cell 3LL are summarized in Table 1, and the effects on treating transplanted human colon cancer […] on nude mice are summarized in Table 2."}, "[2]": {"tested_on": "human ovarian cancer", "experiment": "Human ovarian cancer transplanted nude mice, combination with Gemcitabine", "format": "in vivo, nude mice BALB/c-nu", "experimental": "The compound used for this test is XC608, shown above, and XC608-Cl is the chloride salt of XC608, 090208-1, also a whitish powder. AZD7762 is a yellow powder.\nAll of the above are dissolved in 5% glucose injectible solution and diluted to suitable concentrations. Control: Gemcitabine is obtained from Jiangsu Haosen Pharmaceuticals Co., Ltd., also dissolved to suitable concentration in saline solution.\nTest animals: 30 nude mice BALB/c-nu, female, bw 18-20 g, supplied by B&K Universal Group Limited, Shanghai, China. Cancer cell lines: the human ovarian cell line is from a commercial source, transplanted onto nude mice, which were maintained by Shanghai Pharmaceutical Industry Research Institute.\nThe tumors from the ovarian cancer carrying nude mice is isolated and cut into 1-mm^3 pieces, which are then implanted subcutaneously to the test nude mice. After 10 days, the tumors grow to a size of about 0.1 cm^3. The test mice are randomly divided into 5 groups of six animals.\n(§1) Starting from 11 days after tumor implant, the animals are administered the test compounds i.v. The animals are weighed every two days, and the tumor volume is measured. After 24 days from the beginning of test compound administration, the animals are killed and the tumors are isolated and weighed.\nThe tumor volume (TV) is measured and calculated.\nRelative Tumor volume (RTV) is Vt/V0, wherein Vt is the tumor volume at the measurement time, while V0 is the tumor volume when drug administration was started.\nA compound's antitumor activity is measured by the RTV growth rate, T/C (%), which is calculated as: T/C=Treatment RTC/Control Group RTC×100%.\nIf TC(%) is more than 60, then the treatment is considered to have no effect. Only when the TC is less than 60, an the difference is statistically significant would the treatment be considered to be effective.\nAnother measurement is rate of tumor inhibition, which is IR (%)=(control group tumor weight−treatment group tumor weight)/control group tumor weight×100%."}, "[3]": {"experiment": "Body weight of ovarian cancer transplanted nude mice", "format": "in vivo, nude mice BALB/c-nu", "settings": "i.v.", "experimental": "as §1"}, "[4]": {"tested_on": "HT-29 Cell line", "experiment": "SRB cell multiplication test, sensitizing to cytotoxic antitumor drugs", "method": "3.2 Cell Lines: HT-29 Cell line (from ATCC).\nTest Protocol: The effects of the compounds on cancer cell multiplication was measured using Sulforhodamine B (SRB). Specifically, log phase cells are inoculated into the holes of 96-hole culture plates, allowed to grow using the wall-adhesion procedure at 37° C. under 5% CO2. The test compound at 9 different concentrations were added, each concentration in duplicate, with appropriate saline water and cell-less controls. The cells are cultured for a further 72 hours, and fixed with TCA, and SRB is added for staining, and washed, and air-dried. After adding the Tris solution, the OD value was measured at 510 nm using a Spectra Max 190. The rate of inhibition is calculated according to the formula below: Rate of Inhibition=(ODcontrol−ODdrug)/ODcontrol×100%.\nThe IC50 is calculated based on the above ratios."}}, "note": "Like-named read-outs stand apart in the source and are kept apart here."}
{"smiles": "Nc1ccn([C@@H]2O[C@H](CO)[C@@H](O)C2(F)F)c(=O)n1", "note": "[Gemcitabine, gemcitabine]", "values": [{"measurement": "TC (%)", "setting": "[1]", "value": 45, "unit": "%"}, {"measurement": "TV Dn", "setting": "[2]; Dn, end of test, i.v.", "value": "1734.05 ± 586.49", "unit": "mm^3"}, {"measurement": "RTV dn", "setting": "[2]; Vt/V0 at dn", "value": 12.07}, {"measurement": "TV d0", "setting": "[2]; d0, start of administration", "value": "143.67 ± 44.38", "unit": "mm^3"}, {"measurement": "Tumor Weight dn", "setting": "[2]; isolated tumors at dn", "value": 2.85, "unit": "g"}, {"measurement": "Tumor RI % dn", "setting": "[2]; rate of tumor inhibition by tumor weight versus control", "value": 19.72, "unit": "%"}, {"measurement": "T/C % Dn", "setting": "[2]; treatment RTV/control RTV, *p < 0.05, **p < 0.01", "value": 82.27, "unit": "%"}, {"measurement": "Body Weight (no tumor) Dn", "setting": "[3]; Dn, end of test", "value": 22.65, "unit": "g"}, {"measurement": "Body Weight (with tumor) d0", "setting": "[3]; d0, start of administration", "value": 21.38, "unit": "g"}, {"measurement": "Body Weight (with tumor) dn", "setting": "[3]; dn, end of test", "value": 25.50, "unit": "g"}, {"measurement": "IC50", "setting": "[4]; Homo sapiens, HT-29, 72 h, read-out: IC50 Drug alone", "value": 70, "unit": "nM"}, {"measurement": "IC50", "setting": "[4]; read-out: IC50 +10 nM AZD7762, HT-29, SRB, 72 hours, drug +10 nM AZD7762", "value": 30, "unit": "nM"}, {"measurement": "IC50", "setting": "[4]; read-out: IC50 +100 nM AZD7762, HT-29, SRB, 72 hours, drug +100 nM AZD7762", "value": 5, "unit": "nM"}, {"measurement": "IC50", "setting": "[4]; read-out: IC50 +1 μM XC608, HT-29, SRB, 72 hours, drug +1 μM XC608", "value": 3, "unit": "nM"}]}
